In the assay the target is T1, PDGFRβ tyrosine kinase (Homo sapiens, UniProt P09619).
T1 construct: PDGFRα, PDGFRβ and KDR receptor cytoplasmic domains, obtained by expression of recombinant protein in insect cells; purchased Upstate Biotechnology Inc. 14-463; host or cells: Sf9 insect cells
In words: In vitro enzyme assay (ELISA), Test (a), PDGFRβ. Format: biochemical. The conditions noted are these: ATP 2.8 μM, read-out: IC50 versus PDGFRβ tyrosine kinase. The procedure:
The ability of test compounds to inhibit the phosphorylation of a tyrosine containing polypeptide substrate by the tyrosine kinase enzymes PDGFRα, PDGFRβ and KDR was assessed using conventional ELISA assays. DNA encoding the PDGFRα, PDGFRβ or KDR receptor cytoplasmic domains may be obtained by total gene synthesis (International Biotechnology Lab., 1987, 5(3), 19-25) or by cloning. The DNA fragments may be expressed in a suitable expression system to obtain polypeptide with tyrosine kinase activity. For example, PDGFRα, PDGFRβ and KDR receptor cytoplasmic domains, obtained by expression of recombinant protein in insect cells, can be shown to display intrinsic tyrosine kinase activity. In the case of the VEGF receptor KDR (Genbank Accession No. L04947), a DNA fragment encoding most of the cytoplasmic domain, commencing with methionine 806 and including the termination codon may be cloned into a baculovirus transplacement vector [for example pAcYM1 (see The Baculovirus Expression System: A Laboratory Guide, L. A. King and R. D. Possee, Chapman and Hall, 1992) or pAc360 or pBlueBacHis (available from Invitrogen Corporation)]. This recombinant construct may be co-transfected into insect cells [for example Spodoptera frugiperda 21(Sf21) or Spodoptera frugiperda 9(Sf9)] with viral DNA (for example Pharmingen BaculoGold) to prepare recombinant baculovirus. […]
In general terms: In an ELISA, binding on a coated surface is turned into a signal by an enzyme label.

T1 sequence (P09619 554-1106 limits assumed): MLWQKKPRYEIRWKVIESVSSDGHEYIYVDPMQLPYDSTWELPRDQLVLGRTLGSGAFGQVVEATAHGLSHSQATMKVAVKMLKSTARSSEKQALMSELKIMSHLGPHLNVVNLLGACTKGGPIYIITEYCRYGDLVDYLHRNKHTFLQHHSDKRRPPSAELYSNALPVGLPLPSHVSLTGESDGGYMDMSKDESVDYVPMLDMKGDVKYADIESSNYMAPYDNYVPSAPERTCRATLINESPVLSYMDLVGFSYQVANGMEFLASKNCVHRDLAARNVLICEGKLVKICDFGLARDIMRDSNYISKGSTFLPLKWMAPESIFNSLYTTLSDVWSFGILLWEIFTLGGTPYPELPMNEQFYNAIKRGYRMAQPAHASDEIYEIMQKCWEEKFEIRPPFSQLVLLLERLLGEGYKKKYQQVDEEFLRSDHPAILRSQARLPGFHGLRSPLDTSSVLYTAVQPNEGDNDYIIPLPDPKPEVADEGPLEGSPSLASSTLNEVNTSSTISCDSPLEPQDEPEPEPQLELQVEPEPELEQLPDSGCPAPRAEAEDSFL

Usually IC50 stands for the point on the concentration scale where inhibition reaches its midpoint. For `COc1cc2ncnc(Oc3cnn(CC(=O)Nc4cccc5c4OCO5)c3)c2cc1OC` [Example 2, N-(2,3-methylenedioxyphenyl)-2-[4-(6,7-dimethoxyquinazolin-4-yloxy)pyrazol-1-yl]acetamide], the IC50 is around 10 nM.
